Columns and labels:
gastric acid secretion [1] = assay: Inhibition of Gastric Acid Secretion in the Conscious Female Rat, iv; assay type: in vivo, rat (Sprague-Dawley)
Procedure: (§1) The potency for inhibition of acid secretion is measured in the dog, intravenously (iv) and in the female rat, intravenously (iv).
Female rats of the Sprague-Dawley strain are used. They are equipped with cannulated fistulae in the stomach (lumen) for collection of gastric secretions. A fourteen days recovery period after surgery is allowed before testing is commenced.
Before secretory tests, the animals are deprived of food but not water for 20 h. The stomach is repeatedly washed through the gastric cannula, and 6 ml of Ringer-Glucose given s.c. Acid secretion is stimulated with infusion during 3.5 h (1.2 ml/h, s.c.) of pentagastrin and carbachol (20 and 110 nmol/kg h, respectively), during which time gastric secretions are collected in 30-min fractions. Test substances or vehicle are given iv at 90 min after starting the stimulation, in a volume of 1 ml/kg. Gastric juice samples are titrated to pH 7.0 with NaOH, 0.1 mol/L, and acid output is calculated as the product of titrant volume and concentration. Further calculations are based on group mean responses from 4-7 rats. The acid output during the periods after administration of test substances or vehicle are expressed as fractional responses, setting the acid output in the 30-min period preceding administration to 1.0. Percentage inhibition is calculated from the fractional responses elicited by test compound and vehicle. […]

gastric acid secretion [2] = assay: Inhibition of Gastric Acid Secretion in the Conscious Dog, iv; assay type: in vivo, dog (Harrier); details: Canis lupus familiaris, histamine-stimulated, acid output 2 h after dosing, read-out: Inhibition of acid secretion iv administration ED50, Dog
Procedure: as §1
Harrier dogs of either sex were used. They were equipped with a duodenal fistula for the administration of test compounds or vehicle and a Heidenhain-pouch for the collection of gastric secretions.
Before secretory tests the animals were fasted for about 18 h but water was freely allowed. Gastric acid secretion was stimulated by a 4 h infusion of histamine dihydrochloride (12 ml/h) at a dose producing about 80% of the individual maximal secretory response, and gastric juice collected in consecutive 30-min fractions. Test substance or vehicle was given iv 1 h after starting the histamine infusion, in a volume of 0.5 ml/kg body weight. The acidity of the gastric juice samples were determined by titration to pH 7.0, and the acid output calculated. The acid output in the collection periods after administration of test substance or vehicle were expressed as fractional responses, setting the acid output in the fraction preceding administration to 1.0. Percentage inhibition was calculated from fractional responses elicited by test compound and vehicle. ED50 -values were obtained by graphical interpolation on log dose--response curves, or estimated from single-dose experiments under the assumption of the same slope of the dose-response curve for all test compounds. […]

[3] = system: uptake of ^125 I in the thyroid gland; assay: Effect on the Accumulation of ^125 I in the Thyroid Gland; assay type: in vivo, rat (Sprague-Dawley); details: oral gavage, male rat, 4 h after ^125 I
Procedure: The effect of a compound within the invention of the formula I on the uptake of iodine into the thyroid gland is measured as an effect on the accumulation of ^125 I in the thyroid gland.
The accumulation of ^125 I in the thyroid gland was studied in male, Sprague-Dawley rats which were deprived of food for 24 hours before the test. The experimental protocol of Searle, C. E. et al. (Biochem J 1950, 47:77-81) was followed.
Test substances suspended in 0.5% buffered (pH 9) methocel, were administered by oral gavage in a volume of 5 ml/kg body weight. After 1 hour, ^125 I (300 kBqkg, 3 ml/kg) was administered by intraperitoneal injection. Four hours after ^125 I-administration, the animals were killed by CO2 -asphyxiation and bled. The thyroid gland together with a piece of the trachea was dissected out and placed in a small test tube for the assay of radioactivity in a gamma counter (LKB-Wallac model 1282 Compugamma). Percentage inhibition was calculated according to the formula 100 (1-T/P), where T and P is the mean radioactivety of thyroid glands from animals treated with test agent and placebo (buffered methocel), respectively. The statistical significane for a difference between test agent- and placebo-treated animals was assessed with the Mann-Whitney U-test (two-tailed). P<0.05 was accepted as significant.

[4] = Chemical Stability at pH 7 in aqueous buffer; assay type: physicochemical; details: pH 7, 37° C., low concentration, read-out: Chemical stability at pH 7 half-life (t 1/2)
Procedure: The chemical stability of a compound of the invention is followed kinetically at low cencentration at 37° C. in aqueous buffer solution at different pH values. The results in Table 4 show the half life (t 1/2) at pH 7, that is the time period after which half the amount of the original compound remains unchanged.

[5] = Bioavailability in the Male Rat (id vs iv AUC); assay type: in vivo, rat (Sprague-Dawley); details: blood, 4 umol/kg, intraduodenal vs iv, 4 μmol/kg, read-out: Bioavailability F %, Rat
Procedure: Biovailability is assessed by calculating the quotient between the area under plasma concentration (AUC) curve following intreduodenal (id) administration and intravenous (iv) administration from the rat.
Male adult rats of the Sprague-Dawley strain were used. One day, prior to the experiments, all rats were prepared by cannulation of the left carotid artery under anaesthesia. The rats used for the intravenous experiments, were also cannulated in the jugular vein. (Ref. V. Popovic and P. Popovic, J Appl Physiol 1960;15,727-728). The rats used for the intraduodenal experiments, were also cannulated in the upper part of the duodenum. The cannulas were exteriorized at the nape of the neck. The rats were housed individually after surgery and were deprived of food, but not water, before administration of the test substances. The same dose (4 μmol/kg) were given iv and id as a bolus for about one minute (2 ml/kg).
Blood samples (0.1-0.4 g) were drawn repeatedly from the carotid artery at intervals up to 4 hours after given dose. […]
The area under the blood concentration vs time curve, AUC, was determined by the linear trapezoidal rule and extrapolated to infinity by dividing the last determined blood concentration by the elimination rate constant in the terminal phase.
The systemic bioavailability (F %) following intraduodenal administration was calculated as [formula]

Percent inhibition of 400 μmol/kg on the uptake of ^125 I in the thyroid gland [3] [%] | half-life [4] [h] | bioavailability [5] [%] | Structure (SMILES) | inhibition of acid secretion, Rat (gastric acid secretion [1]; 1 μmol/kg iv) [%] | ED50 (gastric acid secretion [2]) [µmol/kg] | ED50 (gastric acid secretion [1]; 2 h, iv, pentagastrin and carbachol stimulated, second hour after drug, read-out: Inhibition of acid secretion iv administration ED50, Rat) [µmol/kg]
– | – | – | CC(=O)c1cc2nc([S+]([O-])Cc3nccc4c3OCCO4)[nH]c2cc1C (centres unmarked) [Example 2, 5-Acetyl-6-methyl-2-[[(3,4-ethylendioxy-2-pyridinyl)methyl]sulfinyl]-1H-benzimidazole] | 14 | – | –
0 | 8 | – | COC(=O)c1cc2nc([S+]([O-])Cc3nccc(OC)c3OC)[nH]c2cc1C (centres unmarked) [Example 3, 5-Carbomethoxy-6-methyl-2-[[(3,4-dimethoxy-2-pyridinyl)methyl]sulfinyl]-1H-benzimidazole] | – | 0.5 | –
-7 | 7.83 | > 100 | COc1ccnc(C[S+]([O-])c2nc3cc(C(C)=O)c(C)cc3[nH]2)c1OC (centres unmarked) [Example 4, 5-Acetyl-6-methyl-2-[[(3,4-dimethoxy-2-pyridinyl)methyl]sulfinyl]-1H-benzimidazole] | – | 0.74 | 0.9
-6 | 4.5 | – | CCOC(=O)c1ccc2[nH]c([S+]([O-])Cc3nccc(OC)c3OC)nc2c1 (centres unmarked) [Example 5, 5-Carbethoxy-2-[[(3,4-dimethoxy-2pyridinyl)methyl]sulfinyl]-1H-benzimidazole] | – | – | –

Reference: patent publication US5430042A, “Dialkoxy-pyridinyl-benzimidazole derivatives, process for their preparation and their pharmaceutical use” (priority 1990, dated 1995)
